Data from patent US11958813B2, “Uracil compound containing carboxylate fragment, preparation method therefor, and herbicidal composition and use thereof” (JIANGSU FLAG CHEMICAL INDUSTRY CO., LTD., priority 2021, dated 2024).

Tests used:
Experiment in all cases: Greenhouse herbicidal activity test, post-emergence
Assay type in all cases: in vivo
Alopecurus japonicus = details: determined 21 days later; for inhibition at 7.5 g/ha / inhibition at 15 g/ha: Alopecurus japonicus, 504 h, read-out: fresh weight inhibition rate, Alopecurus japonicus
Source text: (§1) A herbicidal activity test method for the compounds of the present invention was as follows:
(§2) Post-emergence: an appropriate quantity of seeds of gramineous weeds (Echinochloa crusgalli, Eleusine indica, Digitaria sanguinalis, Alopecurus japonicus, Beckmannia syzigachne, Leptochloa chinensis, Polypogon fugax, Alopecurus aequalis, Lolium multiflorum, and Poa annua), broad-leaved weeds (Eclipta prostrata, Amaranthus retroflexus, Brassica juncea, Malachium aquaticum, Conyza canadensis, and Sesbania cannabina), and Cyperus iria were sown in plastic pots having a diameter of 7 cm and holes at the bottom and filled with nutrient soil (sandy soil, pH 6.1, organic matter 1%) respectively, the seeds were covered with an appropriate amount of soil after being sown, then the soil was wetted with water from the bottom, the seeds were cultured in a constant-temperature illuminated culture room until a 2-4 leaf stage, and stems and leaves underwent spray treatment. After the treatment, the test materials were placed in a laboratory and cultured in the constant-temperature illuminated culture room after the liquid was naturally dry in the shade, and results were determined 21 days later.
(§3) According to the foregoing test method, a parallel experiment was carried out on herbicidal activities of some compounds of the general formula (I), the compound Butafenacil (compound 47 in the patent specification) specifically disclosed in U.S. Pat. No. 5,183,492A, and the compound CK (compound 1 in the patent specification) specifically disclosed in U.S. Pat. No. 5,183,492A, at application doses of 7.5 g a.i./ha and 15 g a.i./ha.

Polypogon fugax = details: determined 21 days later; for inhibition at 7.5 g/ha / inhibition at 15 g/ha: Polypogon fugax, 504 h, read-out: fresh weight inhibition rate, Polypogon fugax
Source text: as §1, §2, §3

Sesbania cannabina = details: determined 21 days later; for inhibition at 7.5 g/ha / inhibition at 15 g/ha: Sesbania cannabina, 504 h, read-out: fresh weight inhibition rate, Sesbania cannabina
Source text: as §1, §2, §3

Compound | inhibition at 7.5 g/ha (Alopecurus japonicus; dose 7.5 g a.i./ha) | inhibition at 15 g/ha (Alopecurus japonicus; dose 15 g a.i./ha) | inhibition at 7.5 g/ha (Polypogon fugax; dose 7.5 g a.i./ha) | inhibition at 15 g/ha (Polypogon fugax; dose 15 g a.i./ha) | inhibition at 7.5 g/ha (Sesbania cannabina; dose 7.5 g a.i./ha) | inhibition at 15 g/ha (Sesbania cannabina; dose 15 g a.i./ha) | fresh weight inhibition rate, Alopecurus japonicus (Alopecurus japonicus; dose 7.5 g a.i./ha) | fresh weight inhibition rate, Alopecurus japonicus (Alopecurus japonicus; dose 15 g a.i./ha) | fresh weight inhibition rate, Polypogon fugax (Polypogon fugax; dose 7.5 g a.i./ha) | fresh weight inhibition rate, Polypogon fugax (Polypogon fugax; dose 15 g a.i./ha) | fresh weight inhibition rate, Sesbania cannabina (Sesbania cannabina; dose 7.5 g a.i./ha) | fresh weight inhibition rate, Sesbania cannabina (Sesbania cannabina; dose 15 g a.i./ha)
C=CCOC(=O)C(C)(C)OC(=O)c1cc(-n2c(=O)cc(C(F)(F)F)n(C)c2=O)ccc1Cl [Butafenacil, reference compound] | < 55% | < 55% | < 55% | 55 to 70% | 55 to 70% | 70 to 85% |  |  |  |  |  | 
COC(=O)C(C)OC(=O)c1cc(-n2c(=O)cc(C(F)(F)F)n(C)c2=O)c(F)cc1Cl (stereo not drawn) [CK, reference compound] | < 55% | 55 to 70% | < 55% | 55 to 70% | 55 to 70% | 70 to 85% |  |  |  |  |  | 
COCCOC(=O)COC(=O)c1cc(-n2c(=O)cc(C(F)(F)F)n(C)c2=O)c(F)cc1Cl [Compound 3] |  |  |  |  |  |  | B (B indicates that the inhibition rate was greater than or equal to 70% to less than 85%) | A (A indicates that the inhibition rate was greater than or equal to 85% to 100%) | B (B indicates that the inhibition rate was greater than or equal to 70% to less than 85%) | A (A indicates that the inhibition rate was greater than or equal to 85% to 100%) | A (A indicates that the inhibition rate was greater than or equal to 85% to 100%) | A (A indicates that the inhibition rate was greater than or equal to 85% to 100%)
COCCOC(=O)C(C)(C)OC(=O)c1cc(-n2c(=O)cc(C(F)(F)F)n(C)c2=O)c(F)cc1Cl [Compound 207] |  |  |  |  |  |  | A (A indicates that the inhibition rate was greater than or equal to 85% to 100%) | A (A indicates that the inhibition rate was greater than or equal to 85% to 100%) | A (A indicates that the inhibition rate was greater than or equal to 85% to 100%) | A (A indicates that the inhibition rate was greater than or equal to 85% to 100%) | A (A indicates that the inhibition rate was greater than or equal to 85% to 100%) | A (A indicates that the inhibition rate was greater than or equal to 85% to 100%)
C=CCOCCOC(=O)C(C)(C)OC(=O)c1cc(-n2c(=O)cc(C(F)(F)F)n(C)c2=O)c(F)cc1Cl [Compound 214] |  |  |  |  |  |  | A (A indicates that the inhibition rate was greater than or equal to 85% to 100%) | A (A indicates that the inhibition rate was greater than or equal to 85% to 100%) | A (A indicates that the inhibition rate was greater than or equal to 85% to 100%) | A (A indicates that the inhibition rate was greater than or equal to 85% to 100%) | A (A indicates that the inhibition rate was greater than or equal to 85% to 100%) | A (A indicates that the inhibition rate was greater than or equal to 85% to 100%)
COCCOC(=O)C1(OC(=O)c2cc(-n3c(=O)cc(C(F)(F)F)n(C)c3=O)c(F)cc2Cl)CC1 [Compound 258] |  |  |  |  |  |  | A (A indicates that the inhibition rate was greater than or equal to 85% to 100%) | A (A indicates that the inhibition rate was greater than or equal to 85% to 100%) | A (A indicates that the inhibition rate was greater than or equal to 85% to 100%) | A (A indicates that the inhibition rate was greater than or equal to 85% to 100%) | A (A indicates that the inhibition rate was greater than or equal to 85% to 100%) | A (A indicates that the inhibition rate was greater than or equal to 85% to 100%)
